Measurements: patent US10385024B2, “Compounds and methods for inhibiting NHE-mediated antiport in the treatment of disorders associated with fluid retention or salt overload and gastrointestinal tract disorders” (Ardelyx, Inc., priority 2012, dated 2019)

Experiments:
[1] = Pharmacokinetic evaluation in bile; format: in vivo, Sprague-Dawley rats; conditions: bile duct cannulated rats, oral gavage, nominal dose 30 mg/kg, bile collected over 24 h, mean of n=3
Procedure: Bile duct cannulated (BDC) Sprague-Dawley rats were dosed with test compounds by oral gavage and a single aliquot of bile was collected via cannula over the 24 h following dosing. Bile samples were treated with acetonitrile and precipitated proteins were removed by centrifugation. Some compounds required liquid-liquid extraction using MTBE. After centrifugation, samples were diluted as appropriate in mobile phase and analyzed by LC-MS/MS. The concentrations of compounds in bile were determined by interpolation from a standard calibration curve prepared in rat bile from untreated BDC rats. Accurate recovery of quality control samples was confirmed to accept each analytical run. Concentration in bile is reported in nM and represents the mean result from n=3 rats.

human NHE-3 = target: T1, human NHE-3 (Homo sapiens, UniProt P48764); test: Cell-based assay of NHE-3 activity (human NHE3 inhibition assay); conditions: OK cells with human NHE-3 gene, BCECF pH dye, 0-30 μM test compound; read-out: Human NHE3 pIC50 (converted)
T1 construct: expressed in transfected cells; host or cells: Opossum kidney (OK) cells (ATCC), transfected by electroporation
T1 sequence (P48764 26-834): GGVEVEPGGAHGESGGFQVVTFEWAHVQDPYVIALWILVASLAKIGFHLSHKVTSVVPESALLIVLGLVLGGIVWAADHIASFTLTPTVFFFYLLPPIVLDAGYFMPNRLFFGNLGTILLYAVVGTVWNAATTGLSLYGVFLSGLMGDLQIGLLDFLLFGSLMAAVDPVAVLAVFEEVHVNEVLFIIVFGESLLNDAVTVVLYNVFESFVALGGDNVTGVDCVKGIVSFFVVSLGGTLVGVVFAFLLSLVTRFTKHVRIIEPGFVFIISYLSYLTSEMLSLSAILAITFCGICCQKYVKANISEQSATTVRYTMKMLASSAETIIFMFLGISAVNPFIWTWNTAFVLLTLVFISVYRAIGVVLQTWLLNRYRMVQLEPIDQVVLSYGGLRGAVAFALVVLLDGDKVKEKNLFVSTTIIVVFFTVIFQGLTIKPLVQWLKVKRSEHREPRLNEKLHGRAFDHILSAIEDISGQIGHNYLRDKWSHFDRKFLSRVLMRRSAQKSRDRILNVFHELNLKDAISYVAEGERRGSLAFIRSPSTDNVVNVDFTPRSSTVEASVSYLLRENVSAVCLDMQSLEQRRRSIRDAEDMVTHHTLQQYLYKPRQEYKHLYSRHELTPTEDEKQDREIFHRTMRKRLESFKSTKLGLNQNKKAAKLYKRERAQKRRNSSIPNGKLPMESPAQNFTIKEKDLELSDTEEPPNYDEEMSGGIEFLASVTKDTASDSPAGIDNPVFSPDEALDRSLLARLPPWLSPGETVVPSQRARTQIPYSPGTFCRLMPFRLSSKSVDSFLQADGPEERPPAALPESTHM
In short: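 Opossum kidney cells electroporated with rat or human NHE-3, loaded with 5 μM BCECF-AM in NH4Cl-HEPES pH 7.4 for 30 min at RT, then acidified 10 min in Na+-free choline HEPES. Na+-dependent pH recovery rates from BCECF fluorescence, averaged over ≥2 replicates, gave pIC50.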

Plasma PK = format: in vivo, Sprague-Dawley rats; conditions: Sprague-Dawley; rat plasma, oral gavage, nominal dose 30 mg/kg, mean of n=3, sampling 0.5-4 h
Procedure: Sprague-Dawley rats (n=3) were dosed with test compounds by oral gavage. Blood was collected at 0.5, 1, 2 and 4 h via retro-orbital bleeds and processed to plasma using K2EDTA as an anticoagulant. Plasma samples were treated with acetonitrile containing an internal standard and precipitated proteins were removed by centrifugation. Supernatants were analyzed by LC-MS/MS and compound concentrations were determined by interpolation from a calibration curve prepared in plasma. Accurate recovery of quality control samples were confirmed to accept each analytical run.

| SMILES | Concentration in Bile [1] | IC50 (human NHE-3) | AUC (Plasma PK) | Cmax (Plasma PK) |
| --- | --- | --- | --- | --- |
| CN1Cc2c(Cl)cc(Cl)cc2[C@H](c2cccc(S(=O)(=O)NCCOCCOCCNC(=O)CCC(CCC(=O)NCCOCCOCCNS(=O)(=O)c3cccc([C@@H]4CN(C)Cc5c(Cl)cc(Cl)cc54)c3)(CCC(=O)NCCOCCOCCNS(=O)(=O)c3cccc([C@@H]4CN(C)Cc5c(Cl)cc(Cl)cc54)c3)N(C)C)c2)C1 [Example 4, N^1,N^7-bis(2-(2-(2-(3-((S)-6,8-dichloro-2-methyl-1,2,3,4-tetrahydroisoquinolin-4-yl)phenylsulfonamido)ethoxy)ethoxy)ethyl)-4-(3-(2-(2-(2-(3-((S)-6,8-dichloro-2-methyl-1,2,3,4-tetrahydroisoquinolin-4-yl)phenylsulfonamido)ethoxy)ethoxy)ethylamino)-3-oxopropyl)-4-(dimethylamino)heptanediamide] | 45 nM | < 100 nM | < 13 ng·h/mL | < 5 ng/mL |
| CN1Cc2c(Cl)cc(Cl)cc2[C@H](c2cccc(S(=O)(=O)NCCOCCOCCNC(=O)CCC(CCC(=O)NCCOCCOCCNS(=O)(=O)c3cccc([C@@H]4CN(C)Cc5c(Cl)cc(Cl)cc54)c3)(CCC(=O)NCCOCCOCCNS(=O)(=O)c3cccc([C@@H]4CN(C)Cc5c(Cl)cc(Cl)cc54)c3)NC(=O)NCC(=O)O)c2)C1 [Example 7, 18-(3-((S)-6,8-dichloro-2-methyl-1,2,3,4-tetrahydroisoquinolin-4-yl)phenylsulfonamido)-6,6-bis(3-(2-(2-(2-(3-((S)-6,8-dichloro-2-methyl-1,2,3,4-tetrahydroisoquinolin-4-yl)phenylsulfonamido)ethoxy)ethoxy)ethylamino)-3-oxopropyl)-4,9-dioxo-13,16-dioxa-3,5,10-triazaoctadecan-1-oic acid] | 19 nM | < 100 nM | < 8 ng·h/mL | < 2 ng/mL |
